According to patent publication US6726894B1, “Transport vehicles for macromolecules” (priority 1995, dated 2004):

How the values were obtained:
COS-7 cells [1] = experiment: Transfection of COS-7 cells (CAT-assay); assay type: cell-based
COS-7 cells [2] = experiment: Toxicity study, residual protein content of COS-7 cells

CCCCCCCCC=CCCCCCCCCC(CCCCCCCCC=CCCCCCCCC)c1cc[n+](C)cc1.[Cl-] (stereo not drawn) [SAINT-2, 1-Methyl-4-(19-cis,cis-heptatritiaconta-9,28-dienyl)pyridinium Chloride]
transfection efficiency with respect to DOTMA/DOPE vesicles (COS-7 cells [1]; COS-7 cells, FIG. 1): eight
transfection efficiency with respect to Lipofectine (COS-7 cells [1]; dependent on the cell type): at least eight
lipid concentration from which decrease of protein content was observed (COS-7 cells [2]): 90 µM
toxicity compared with DOTMA-DOPE (COS-7 cells [2]): clearly less toxic
residual protein content after decrease (COS-7 cells [2]; decrease from 2 mg/ml): 1.75 mg/mL
